# Test results taken from publication PMC9081605, “A High-Throughput Toxicity Screen of 42 Per- and Polyfluoroalkyl Substances (PFAS) and Functional Assessment of Migration and Gene Expression in Human Placental Trophoblast Cells” (Frontiers in Toxicology, 2022).
# Tested on: JEG-3 cells
# Test: Gene expression, custom NanoString code set of 46 genes
# Format: cell-based, human
# Protocol: JEG-3 cells were seeded at a density of 80,000 cells per well in six well plates and allowed to adhere overnight (24 h). The following day, media was removed and replaced with exposure media, then returned to the incubator for 24 h. The test compounds included non-cytotoxic concentrations of PFOA (0, 1, and 100 µM) and GenX (0, 3, 300 µM). These test compounds were selected a priori due to their high public health relevance. Each 6 well plate contained the three concentrations for either PFOA or GenX, with each condition in technical duplicate. Plates containing these PFOA or GenX exposure conditions were replicated three times (N = 3). After 24 h, exposure media was aspirated and cells were washed in ice cold 1xPBS, which was then aspirated. Each well received 500 µl of TRIzol reagent (Thermo Fisher Scientific, MA, United States) and cells were harvested in the TRIzol using a cell scraper. Technical duplicate wells within a plate were combined to generate a single sample of ∼1,000 µl. RNA was isolated from the resulting cellular homogenate using RNeasy Mini Kits (Qiagen, Hilden, Germany). Isolated RNA quality was validated and concentration determined using a NanoDrop 2000 (Thermo Fisher Scientific, MA, United States). 100 ng of mRNA from each sample was then analyzed using a custom gene expression code set (NanoString, Seattle, WA, United States). The custom code set included 46 genes selected for their downstream involvement in placental development (e.g., WNT4), endocrine signaling (e.g., CYP19A1), fetal growth/nutrient sensing (e.g., IGF2), inflammation (e.g., IL6), oxidative stress (e.g., SOD1, GPX1), and xenobiotic transport/metabolism (e.g., ABCG2, MRP3).
# Gene expression data were quantified using the nCounter Digital Analyzer (NanoString, Seattle, WA, United States) and raw and adjusted counts were generated with nSolver (v4.0) software (NanoString, Seattle, WA, United States). Data were adjusted utilizing the manufacturer’s positive and negative experimental control probes, as well as housekeeping genes (ACTA2, ACTB, B2M, LDHA, RNA18S5, and ROLYR2L). All samples passed nSolver’s initial QA/QC controls and replicates were very well correlated with R ^2 values greater than 0.99. Adjusted data were then imported into Partek v7.0 (St. Louis, MO, United States), log2 transformed and quantile normalized for further QA/QC and statistical analyses. Genes with mRNA counts below the detection threshold of 20 were removed due to suboptimal probe hybridization (N = 2 genes for GenX; GH2 and IGFBP5). Fold change values were analyzed by ANOVA with post hoc false discovery rate adjustment (FDR) of p < 0.1. Normalized gene expression values were visualized using pheatmap with Euclidean clustering of genes and concentration groups ([Kolde and Kolde, 2015]).
smiles,measurement,setting,value
N.O=C(O)C(F)(OC(F)(F)C(F)(F)C(F)(F)F)C(F)(F)F (centres unmarked) [Ammonium perfluoro-2-methyl-3-oxahexanoate],"11BHSD2 gene expression, fold change over untreated control","3 µM, 24 h",-1.00
same,"17BHSD1 gene expression, fold change over untreated control","3 µM, 24 h",-1.11
same,"AHR gene expression, fold change over untreated control","3 µM, 24 h",1.04
same,"AHRR gene expression, fold change over untreated control","3 µM, 24 h",1.18
same,"CAT gene expression, fold change over untreated control","3 µM, 24 h",1.02
same,"CGB5 gene expression, fold change over untreated control","3 µM, 24 h",1.08
same,"COX2 gene expression, fold change over untreated control","3 µM, 24 h",1.27
same,"CTNNB1 gene expression, fold change over untreated control","3 µM, 24 h",1.00
same,"CYP1A1 gene expression, fold change over untreated control","3 µM, 24 h",-1.22
same,"CYP2E1 gene expression, fold change over untreated control","3 µM, 24 h",-1.26
same,"CYP3A5 gene expression, fold change over untreated control","3 µM, 24 h",1.19
same,"CYP3A7 gene expression, fold change over untreated control","3 µM, 24 h",1.01
same,"CYP19A1 gene expression, fold change over untreated control","3 µM, 24 h",-1.03
same,"EGFR gene expression, fold change over untreated control","3 µM, 24 h",1.00
same,"ENG gene expression, fold change over untreated control","3 µM, 24 h",1.04
same,"ESRRA gene expression, fold change over untreated control","3 µM, 24 h",1.00
same,"ESRRG gene expression, fold change over untreated control","3 µM, 24 h",-1.16
same,"GHR gene expression, fold change over untreated control","3 µM, 24 h",1.15
same,"GPER1 gene expression, fold change over untreated control","3 µM, 24 h",-1.02
same,"HIF1A gene expression, fold change over untreated control","3 µM, 24 h",1.00
same,"IGF2 gene expression, fold change over untreated control","3 µM, 24 h",1.00
same,"IGFR1 gene expression, fold change over untreated control","3 µM, 24 h",-1.02
same,"IGFR2 gene expression, fold change over untreated control","3 µM, 24 h",1.04
same,"IL6 gene expression, fold change over untreated control","3 µM, 24 h",-1.23
same,"MRP1 gene expression, fold change over untreated control","3 µM, 24 h",-1.05
same,"MRP2 gene expression, fold change over untreated control","3 µM, 24 h",1.05
same,"MRP3 gene expression, fold change over untreated control","3 µM, 24 h",1.07
same,"NFKB1 gene expression, fold change over untreated control","3 µM, 24 h",1.03
same,"NFKB2 gene expression, fold change over untreated control","3 µM, 24 h",-1.07
same,"NR3C1 gene expression, fold change over untreated control","3 µM, 24 h",1.00
same,"PGF gene expression, fold change over untreated control","3 µM, 24 h",1.00
same,"PMM1 gene expression, fold change over untreated control","3 µM, 24 h",-1.05
same,"ROLYR2L gene expression, fold change over untreated control","3 µM, 24 h",1.00
same,"SLC2A1 gene expression, fold change over untreated control","3 µM, 24 h",-1.04
same,"SOD1 gene expression, fold change over untreated control","3 µM, 24 h",1.00
same,"TGFB1 gene expression, fold change over untreated control","3 µM, 24 h",-1.04
same,"VEGFA gene expression, fold change over untreated control","3 µM, 24 h",1.04
same,"VEGFB gene expression, fold change over untreated control","3 µM, 24 h",1.00
same,"WNT4 gene expression, fold change over untreated control","3 µM, 24 h",1.08
same,"WNT6 gene expression, fold change over untreated control","3 µM, 24 h",-1.09
same,"WNT7B gene expression, fold change over untreated control","3 µM, 24 h",1.07
same,"mTOR gene expression, fold change over untreated control","3 µM, 24 h",1.00
same,"11BHSD2 gene expression, fold change over untreated control","300 µM, 24 h",-1.01
same,"AHR gene expression, fold change over untreated control","300 µM, 24 h",-1.04
same,"AHRR gene expression, fold change over untreated control","300 µM, 24 h",1.19
same,"CAT gene expression, fold change over untreated control","300 µM, 24 h",-1.05
same,"CGB5 gene expression, fold change over untreated control","300 µM, 24 h",1.11
same,"COX2 gene expression, fold change over untreated control","300 µM, 24 h",1.27
same,"CYP1A1 gene expression, fold change over untreated control","300 µM, 24 h",-1.16
same,"CYP2E1 gene expression, fold change over untreated control","300 µM, 24 h",1.04
same,"CYP3A5 gene expression, fold change over untreated control","300 µM, 24 h",-1.83
same,"CYP3A7 gene expression, fold change over untreated control","300 µM, 24 h",-1.25
same,"CYP19A1 gene expression, fold change over untreated control","300 µM, 24 h",-1.29
same,"ENG gene expression, fold change over untreated control","300 µM, 24 h",-1.04
same,"ESRRA gene expression, fold change over untreated control","300 µM, 24 h",1.19
same,"ESRRG gene expression, fold change over untreated control","300 µM, 24 h",1.00
same,"GHR gene expression, fold change over untreated control","300 µM, 24 h",1.11
same,"HIF1A gene expression, fold change over untreated control","300 µM, 24 h",1.05
same,"IGFR1 gene expression, fold change over untreated control","300 µM, 24 h",-1.10
same,"IGFR2 gene expression, fold change over untreated control","300 µM, 24 h",-1.00
same,"IL6 gene expression, fold change over untreated control","300 µM, 24 h",-1.51
same,"MRP1 gene expression, fold change over untreated control","300 µM, 24 h",1.14
same,"MRP2 gene expression, fold change over untreated control","300 µM, 24 h",1.00
same,"MRP3 gene expression, fold change over untreated control","300 µM, 24 h",1.44
same,"NFKB1 gene expression, fold change over untreated control","300 µM, 24 h",1.03
same,"NFKB2 gene expression, fold change over untreated control","300 µM, 24 h",-1.04
same,"NR3C1 gene expression, fold change over untreated control","300 µM, 24 h",1.00
same,"PGF gene expression, fold change over untreated control","300 µM, 24 h",-1.00
same,"PMM1 gene expression, fold change over untreated control","300 µM, 24 h",1.05
same,"ROLYR2L gene expression, fold change over untreated control","300 µM, 24 h",1.00
same,"SLC2A1 gene expression, fold change over untreated control","300 µM, 24 h",-1.13
same,"TGFB1 gene expression, fold change over untreated control","300 µM, 24 h",1.00
same,"VEGFA gene expression, fold change over untreated control","300 µM, 24 h",1.27
same,"VEGFB gene expression, fold change over untreated control","300 µM, 24 h",-1.01
same,"WNT4 gene expression, fold change over untreated control","300 µM, 24 h",1.20
same,"WNT6 gene expression, fold change over untreated control","300 µM, 24 h",-1.09
same,"WNT7B gene expression, fold change over untreated control","300 µM, 24 h",-1.12
same,"mTOR gene expression, fold change over untreated control","300 µM, 24 h",1.00
same,number of genes with significantly altered expression (of 46),"300 µM, 24 h, FDR p < 0.1",15 genes
same,lowest concentration inducing significant dysregulated expression of placental genes,after 24 h of exposure,3 µM
